One block for each molecule: values may come before it.
Columns and labels:
[1] = biological target: T1, S5AR enzyme derived from LNCaP cells (Homo sapiens, UniProt P18405); experiment: S5AR inhibition assay (DHT production quantified by LC-MS); format: biochemical; settings: read-out: S5AR percentage inhibition
T1 sequence (P18405 1-259): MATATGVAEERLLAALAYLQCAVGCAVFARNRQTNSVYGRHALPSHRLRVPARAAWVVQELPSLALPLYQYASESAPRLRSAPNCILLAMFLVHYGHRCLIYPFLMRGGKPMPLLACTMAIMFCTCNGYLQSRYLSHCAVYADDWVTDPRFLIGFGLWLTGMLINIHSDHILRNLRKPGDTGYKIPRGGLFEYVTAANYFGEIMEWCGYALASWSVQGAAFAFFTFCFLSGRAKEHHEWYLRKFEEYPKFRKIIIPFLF

[2] = biological target: T1, S5AR enzyme derived from LNCaP cells; settings: taken from previous publication; read-out: S5AR Inhibitory Activity (IC50); cited from earlier work

- inhibition at 300 µM ([1]; final concentration of 300 µM): 41.4%
Compound: CC1=C(CC[C@@H](C)CC(=O)O)[C@@]2(C)CCCC(C)(C)C2CC1=O (stereo partly drawn) [Compound 2, 7-Oxo-8-labden-15-oic acid]

Compound: COc1cc(/C=C/C(=O)CC(=O)/C=C/c2ccc(O)c(OC)c2)ccc1O [Curcumin]
- inhibition at 50 µg/mL [1]: 92.73 ± 0.14%

Compound: CC(C)(C)NC(=O)[C@H]1CC[C@H]2[C@@H]3CC[C@H]4NC(=O)C=C[C@]4(C)[C@H]3CC[C@]12C [Finasteride]
- IC50 [2]: 760 ± 30 nM
